{
  "source": "patent US20050112573A1",
  "about": "“Method of detecting toxic substance” (priority 2001, published 2005)",
  "system": "yeast genes (level of expressed mRNA)",
  "experiment": "DNA chip analysis of expressed mRNA of yeast genes after 2 h culture with a toxic chemical substance",
  "assay_type": "cell-based, Saccharomyces cerevisiae S288C",
  "procedure": "Yeast (Saccharomyces cerevtisiae S288C (α SUC2mal mel gap2 CUP1)) were cultured at 25° C. on YPD medium (yeast extract 1%, polypepton 2%, glucose 2%). One of toxic chemical substances was added to the cell at logarithmic growth phase, and the cell was further cultured for two hours. Cell was cultured without any chemical substance in the same condition, and was used as control. Concentrations of the chemical substances were defined to inhibit the growth of the yeast but not lead to death.\nAfter the completion of cultivation, the culture was centrifuged to collect the cells. To the cells, sodium acetate buffer (50 mM sodium acetate, 10 mM EDTA, 1% SDS) was added, and the mixture was shaken at 65° C. for five minutes, followed by returning to room temperature, and obtaining the supernatant, which procedure was repeated two times. To the supernatant, ½ amount of a solution of phenol/chloroform was added, and the mixture was centrifuged to give a supernatant, which was added with an equal amount of chloroform, and the mixture was centrifuged to give a supernatant. To the supernatant, an equal amount of isopropanol containing 0.3 M sodium acetate was added, and the mixture was allowed to stand at room temperature for 30 minutes, after which the mixture was centrifuged to give a sediment of the whole RNAs. Seventy % ethanol was added to the sediment, and the mixture was again centrifuged to give a sediment, which was then dried and dissolved in water. mRNA was isolated from the whole RNAs as followings. In view of the fact that a poly A chain is attached to the 3′ terminus of mRNA, a polynucleotide having a poly T structure which was immobilized on the surface of latex beads was used to trap the mRNA, and then the mRNA was washed and eluted with spine column (Oligotex-dT30<Super>mRNA Purification Kit, Takara). Reverse transcription of the mRNA was conducted with a reverse transcriptase (Super Script II Reverse Transcriptase; catalogue No. 18064-014, GibcoBRL) using fluorescence-labeled nucleotides to give cDNAs that were introduced with Cy3-dUTP or Cy5-dUTP during the reverse transcription.\nThe labeled cDNAs were dissolved in TE buffer (10 mM Tris-HCl/1 mM EDTA, pH8.0), and the solution was dropped on the DNA chip containing the whole genes of yeast (DNA Chip Research Inc. Japan) so that the cDNAs were hybridized on the DNA chip at 65° C. for over 12 hours. The fluoresces intensity of the DNA chip was read with a scanner, and the ratio relative to the fluorescence intensity resulting from the absence of chemical substance was estimated as the following, which is shown in Tables 1 to 9: [formula]\nIn the Tables, “Intensity” indicated in the rightmost column is a value of the level of expressed mRNA of each gene in control cells as divided by the average level of the expressions of the whole genes.",
  "data": [
    {"smiles": "CCCCC[C@H](O)CC(=O)CCc1ccc(O)c(OC)c1", "note": "[(13), gingerol]", "values": [
      {"measurement": "The level of expressed mRNA in the presence of chemical substance/absence: YDR109C", "setting": "gene YDR109C", "result": 1.4},
      {"measurement": "The level of expressed mRNA in the presence of chemical substance/absence: YDR128W", "setting": "gene YDR128W", "result": 1.1},
      {"measurement": "The level of expressed mRNA in the presence of chemical substance/absence: YDR133C", "setting": "gene YDR133C", "result": 0.1},
      {"measurement": "The level of expressed mRNA in the presence of chemical substance/absence: YDR140W", "setting": "gene YDR140W", "result": 2.0},
      {"measurement": "The level of expressed mRNA in the presence of chemical substance/absence: YDR221W", "setting": "gene YDR221W", "result": 1.0},
      {"measurement": "The level of expressed mRNA in the presence of chemical substance/absence: YDR250C", "setting": "gene YDR250C", "result": 1.2},
      {"measurement": "The level of expressed mRNA in the presence of chemical substance/absence: YDR271C", "setting": "gene YDR271C", "result": 1.5},
      {"measurement": "The level of expressed mRNA in the presence of chemical substance/absence: YDR278C", "setting": "gene YDR278C", "result": 0.7},
      {"measurement": "The level of expressed mRNA in the presence of chemical substance/absence: YDR281C", "setting": "gene YDR281C", "result": 0.7},
      {"measurement": "The level of expressed mRNA in the presence of chemical substance/absence: YDR316W", "setting": "gene YDR316W", "result": 0.6},
      {"measurement": "The level of expressed mRNA in the presence of chemical substance/absence: YDR338C", "setting": "gene YDR338C", "result": 1.3},
      {"measurement": "The level of expressed mRNA in the presence of chemical substance/absence: YDR366C", "setting": "gene YDR366C", "result": 0.8},
      {"measurement": "level of expressed mRNA in the presence of chemical substance/in its absence", "setting": "gene YDR380W", "result": 0.4},
      {"measurement": "level of expressed mRNA in the presence of chemical substance/in its absence", "setting": "gene YDR410C", "result": 1.2},
      {"measurement": "The level of expressed mRNA in the presence of chemical substance/absence: YDR421W", "setting": "gene YDR421W", "result": 0.6},
      {"measurement": "The level of expressed mRNA in the presence of chemical substance/absence: YDR425W", "setting": "gene YDR425W", "result": 1.4},
      {"measurement": "The level of expressed mRNA in the presence of chemical substance/absence: YDR485C", "setting": "gene YDR485C", "result": 1.2},
      {"measurement": "level of expressed mRNA in the presence of chemical substance/in its absence", "setting": "gene YDR487C", "result": 1.5},
      {"measurement": "level of expressed mRNA in the presence of chemical substance/in its absence", "setting": "gene YDR502C", "result": 1.2},
      {"measurement": "The level of expressed mRNA in the presence of chemical substance/absence: YDR504C", "setting": "gene YDR504C", "result": 2.2},
      {"measurement": "level of expressed mRNA in the presence of chemical substance/in its absence", "setting": "gene YEL011W", "result": 1.5},
      {"measurement": "level of expressed mRNA in the presence of chemical substance/in its absence", "setting": "gene YEL020C", "result": 1.2},
      {"measurement": "The level of expressed mRNA in the presence of chemical substance/absence: YEL044W", "setting": "gene YEL044W", "result": 1.3},
      {"measurement": "level of expressed mRNA in the presence of chemical substance/in its absence", "setting": "gene YER026C", "result": 1.9},
      {"measurement": "level of expressed mRNA in the presence of chemical substance/in its absence", "setting": "gene YER069W", "result": 1.4},
      {"measurement": "The level of expressed mRNA in the presence of chemical substance/absence: YER092W", "setting": "gene YER092W", "result": 1.2},
      {"measurement": "The level of expressed mRNA in the presence of chemical substance/absence: YER182W", "setting": "gene YER182W", "result": 0.9},
      {"measurement": "The level of expressed mRNA in the presence of chemical substance/absence: YFL042C", "setting": "gene YFL042C", "result": 1.7},
      {"measurement": "level of expressed mRNA in the presence of chemical substance/in its absence", "setting": "gene YFR015C", "result": 2.5},
      {"measurement": "The level of expressed mRNA in the presence of chemical substance/absence: YFR026C", "setting": "gene YFR026C", "result": 1.1},
      {"measurement": "The level of expressed mRNA in the presence of chemical substance/absence: YFR056C", "setting": "gene YFR056C", "result": 0.3},
      {"measurement": "level of expressed mRNA in the presence of chemical substance/in its absence", "setting": "gene YGL001C", "result": 1.0},
      {"measurement": "level of expressed mRNA in the presence of chemical substance/in its absence", "setting": "gene YGL022W", "result": 1.0},
      {"measurement": "level of expressed mRNA in the presence of chemical substance/in its absence", "setting": "gene YGL039W", "result": 1.5},
      {"measurement": "The level of expressed mRNA in the presence of chemical substance/absence: YGL041C", "setting": "gene YGL041C", "result": 1.0},
      {"measurement": "The level of expressed mRNA in the presence of chemical substance/absence: YGL045W", "setting": "gene YGL045W", "result": 1.3},
      {"measurement": "The level of expressed mRNA in the presence of chemical substance/absence: YGL057C", "setting": "gene YGL057C", "result": 1.3},
      {"measurement": "The level of expressed mRNA in the presence of chemical substance/absence: YGL088W", "setting": "gene YGL088W", "result": 0.7},
      {"measurement": "level of expressed mRNA in the presence of chemical substance/in its absence", "setting": "gene YGL104C", "result": 2.0},
      {"measurement": "level of expressed mRNA in the presence of chemical substance/in its absence", "setting": "gene YGL134W", "result": 0.7},
      {"measurement": "level of expressed mRNA in the presence of chemical substance/in its absence", "setting": "gene YGL154C", "result": 2.0},
      {"measurement": "The level of expressed mRNA in the presence of chemical substance/absence: YGL183C", "setting": "gene YGL183C", "result": 1.5},
      {"measurement": "level of expressed mRNA in the presence of chemical substance/in its absence", "setting": "gene YGL209W", "result": 1.9},
      {"measurement": "The level of expressed mRNA in the presence of chemical substance/absence: YGL223C", "setting": "gene YGL223C", "result": 1.7},
      {"measurement": "level of expressed mRNA in the presence of chemical substance/in its absence", "setting": "gene YGL253W", "result": 1.5},
      {"measurement": "The level of expressed mRNA in the presence of chemical substance/absence: YGR038W", "setting": "gene YGR038W", "result": 1.2},
      {"measurement": "level of expressed mRNA in the presence of chemical substance/in its absence", "setting": "gene YGR060W", "result": 0.6},
      {"measurement": "The level of expressed mRNA in the presence of chemical substance/absence: YGR139W", "setting": "gene YGR139W", "result": 0.4},
      {"measurement": "The level of expressed mRNA in the presence of chemical substance/absence: YGR156W", "setting": "gene YGR156W", "result": 1.8},
      {"measurement": "The level of expressed mRNA in the presence of chemical substance/absence: YGR198W", "setting": "gene YGR198W", "result": 1.3},
      {"measurement": "The level of expressed mRNA in the presence of chemical substance/absence: YGR210C", "setting": "gene YGR210C", "result": 1.0},
      {"measurement": "The level of expressed mRNA in the presence of chemical substance/absence: YGR211W", "setting": "gene YGR211W", "result": 0.8},
      {"measurement": "The level of expressed mRNA in the presence of chemical substance/absence: YGR237C", "setting": "gene YGR237C", "result": 1.6},
      {"measurement": "The level of expressed mRNA in the presence of chemical substance/absence: YGR243W", "setting": "gene YGR243W", "result": 1.1},
      {"measurement": "The level of expressed mRNA in the presence of chemical substance/absence: YGR250C", "setting": "gene YGR250C", "result": 1.7},
      {"measurement": "The level of expressed mRNA in the presence of chemical substance/absence: YGR266W", "setting": "gene YGR266W", "result": 1.1},
      {"measurement": "The level of expressed mRNA in the presence of chemical substance/absence: YGR277C", "setting": "gene YGR277C", "result": 1.6}
    ]}
  ]
}
